{"source": "ChEMBL document CHEMBL1154663", "about": "“Synthesis, crystallization, and biological evaluation of an orally active prodrug of gemcitabine” (J Med Chem, 2009)", "key": {"[1]": {"assay": "Stability in CD1 mouse liver S9 fraction assessed as hydrolysis rate at 100 uM", "type": "ADME, subcellular", "details": "s9, 100 µM"}, "[2]": {"test_system": "Mus musculus", "assay": "Gemcitabine AUC in CD1 mouse at 14.3 mg/kg, po", "type": "ADME, organism-based", "design": "dose 14.3 mg/kg, route oral", "details": "in vivo"}, "[3]": {"test_system": "Mus musculus", "assay": "Gemcitabine Cmax in CD1 mouse at 14.3 mg/kg, po", "type": "ADME, organism-based", "design": "dose 14.3 mg/kg, route oral", "details": "in vivo"}, "[4]": {"assay": "Stability in human liver S9 fraction assessed as hydrolysis rate at 100 uM", "type": "ADME, subcellular", "details": "s9, 100 µM"}, "[5]": {"assay": "Chemical stability in buffer solution assessed as hydrolysis at pH 8 after 4 hrs at 40 degC", "type": "physicochemical", "details": "read-out: solubility"}, "[6]": {"assay": "Solubility in buffer solution at pH 4 after 4 hrs at 40 degC", "type": "physicochemical", "details": "pH 4, 4 h"}, "[7]": {"assay": "Solubility in buffer solution at pH 1 after 4 hrs at 40 degC", "type": "physicochemical", "details": "pH 1, 4 h"}, "[8]": {"assay": "Tmax in po dosed CD1 mouse", "type": "ADME, organism-based", "details": "in vivo"}, "[9]": {"assay": "Chemical stability in buffer solution assessed as hydrolysis at pH 1 after 4 hrs at 40 degC", "type": "physicochemical", "details": "read-out: solubility"}, "[10]": {"assay": "Solubility in buffer solution at pH 2 after 4 hrs at 40 degC", "type": "physicochemical", "details": "pH 2, 4 h"}, "[11]": {"test_system": "HCT-116", "assay": "Antitumor activity in human HCT116 cells xenografted CD1 mouse assessed as maximum tumor reduction at 3.77 mg/kg, po administered daily for 14 days measured after 6 weeks", "type": "functional", "design": "scale not given: the % may be the effect or the level left"}, "[12]": {"test_system": "HCT-116", "assay": "Antitumor activity in human HCT116 cells xenografted CD1 mouse assessed as maximum tumor reduction at 7.55 mg/kg, po administered daily for 14 days measured after 6 weeks", "type": "functional", "design": "scale not given: the % may be the effect or the level left"}, "[13]": {"assay": "Chemical stability in buffer solution assessed as hydrolysis at pH 2 after 4 hrs at 40 degC", "type": "physicochemical", "details": "read-out: solubility"}, "[14]": {"assay": "Stability in human small intestine homogenate assessed as hydrolysis rate at 96 uM", "type": "ADME, tissue-based", "details": "tissue homogenate"}, "[15]": {"assay": "Solubility in buffer solution at pH 8 after 4 hrs at 40 degC", "type": "physicochemical", "details": "pH 8, 4 h"}, "[16]": {"assay": "Stability in CD1 mouse small intestine homogenate assessed as hydrolysis rate after 30 mins at 96 uM", "type": "ADME, tissue-based", "details": "read-out: Activity"}, "[17]": {"assay": "Drug level in CD1 mouse portal blood at 14.3 mg/kg, po after 5 mins", "type": "ADME, organism-based", "design": "dose 14.3 mg/kg, route oral", "details": "read-out: Drug uptake"}, "[18]": {"assay": "Stability in CD1 mouse small intestine homogenate assessed as hydrolysis rate minute at 96 uM", "type": "ADME, tissue-based", "details": "tissue homogenate"}, "[19]": {"assay": "AUC in po dosed CD1 mouse", "type": "ADME, organism-based", "details": "plasma"}, "[20]": {"assay": "Stability in human small intestine homogenate assessed as hydrolysis rate after 30 mins at 96 uM", "type": "ADME, tissue-based", "details": "read-out: Activity"}, "[21]": {"assay": "Cmax in po dosed CD1 mouse", "type": "ADME, organism-based", "design": "route oral", "details": "in vivo"}, "[22]": {"assay": "Chemical stability in buffer solution assessed as hydrolysis at pH 4 after 4 hrs at 40 degC", "type": "physicochemical", "details": "read-out: solubility"}, "[23]": {"assay": "Chemical stability in buffer solution assessed as hydrolysis at pH 6 after 4 hrs at 40 degC", "type": "physicochemical", "details": "read-out: solubility"}, "[24]": {"assay": "Solubility in buffer solution at pH 6 after 4 hrs at 40 degC", "type": "physicochemical", "details": "pH 6, 4 h"}, "[25]": {"test_system": "Blood", "assay": "Drug level in CD1 mouse portal blood assessed as gemcitabine level at 14.3 mg/kg, po after 5 mins", "type": "ADME, organism-based", "design": "dose 14.3 mg/kg, route oral", "details": "in vivo"}, "[26]": {"test_system": "HCT-116", "assay": "Antitumor activity in human HCT116 cells xenografted CD1 mouse assessed as maximum tumor reduction at 160 mg/kg, ip administered as total 4 doses for every 3 days measured after 6 weeks", "type": "functional", "design": "scale not given: the % may be the effect or the level left", "details": "route intraperitoneal"}, "[27]": {"assay": "Stability in human Caco-2 cell homogenate assessed as half life", "type": "ADME, Colon"}}, "data": [{"smiles": "CCCC(CCC)C(=O)Nc1ccn([C@@H]2O[C@H](CO)[C@@H](O)C2(F)F)c(=O)n1", "note": "[LY-2334737]", "values": [{"measurement": "Activity", "setting": "[1]", "value": 11, "unit": "pmol/mg/min"}, {"measurement": "AUC", "setting": "[2]", "value": 778, "unit": "ng·h/mL"}, {"measurement": "Cmax", "setting": "[3]", "value": 373, "unit": "ng/mL"}, {"measurement": "Activity", "setting": "[4]", "value": 27, "unit": "pmol/min/mg"}, {"measurement": "degraded at 4 h", "setting": "[5]", "value": 0, "unit": "%"}, {"measurement": "solubility", "setting": "[6]", "value": "> 2", "unit": "%"}, {"measurement": "solubility", "setting": "[7]", "value": 1.12, "unit": "%"}, {"measurement": "Tmax", "setting": "[8]", "value": 30, "unit": "min"}, {"measurement": "degraded at 4 h", "setting": "[9]", "value": 21, "unit": "%"}, {"measurement": "solubility", "setting": "[10]", "value": 1.79, "unit": "%"}, {"measurement": "Activity", "setting": "[11]", "value": 56.3, "unit": "%"}, {"measurement": "Activity", "setting": "[12]", "value": 67.1, "unit": "%"}, {"measurement": "degraded at 4 h", "setting": "[13]", "value": 12, "unit": "%"}, {"measurement": "Activity", "setting": "[14]", "value": "< 10", "unit": "pmol/mg/min"}, {"measurement": "Activity", "setting": "[15]", "value": "> 2", "unit": "%"}, {"measurement": "metabolised at 0.5 h, 96 µM", "setting": "[16]", "value": 1, "unit": "%"}, {"measurement": "concentration at 5 min", "setting": "[17]", "value": 653, "unit": "ng/mL"}, {"measurement": "Activity", "setting": "[18]", "value": "< 10", "unit": "pmol/mg/min"}, {"measurement": "AUC", "setting": "[19]", "value": 536, "unit": "ng·h/mL"}, {"measurement": "metabolised at 0.5 h, 96 µM", "setting": "[20]", "value": 1, "unit": "%"}, {"measurement": "Cmax", "setting": "[21]", "value": 535, "unit": "ng/mL"}, {"measurement": "degraded at 4 h", "setting": "[22]", "value": 2, "unit": "%"}, {"measurement": "degraded at 4 h", "setting": "[23]", "value": 0, "unit": "%"}, {"measurement": "solubility", "setting": "[24]", "value": "> 2", "unit": "%"}]}, {"smiles": "Cl.Nc1ccn([C@@H]2O[C@H](CO)[C@@H](O)C2(F)F)c(=O)n1", "note": "[GEMCITABINE HYDROCHLORIDE]", "values": [{"measurement": "Drug uptake", "setting": "[25]", "value": 99, "unit": "ng/mL"}, {"measurement": "Activity", "setting": "[26]", "value": 71.5, "unit": "%"}]}, {"smiles": "CC[C@H](C)[C@H](N)C(=O)OC[C@H]1O[C@@H](n2ccc(N)nc2=O)C(F)(F)[C@@H]1O", "values": [{"measurement": "half-life", "setting": "[27]", "value": 75, "unit": "min"}, {"measurement": "Activity", "setting": "[14]", "value": 3700, "unit": "pmol/mg/min"}, {"measurement": "metabolised at 0.5 h, 96 µM", "setting": "[16]", "value": 100, "unit": "%"}, {"measurement": "Activity", "setting": "[18]", "value": 2300, "unit": "pmol/mg/min"}, {"measurement": "metabolised at 0.5 h, 96 µM", "setting": "[20]", "value": 100, "unit": "%"}]}]}
